The target in one experiment is T1, GRK6 (Homo sapiens, UniProt P43250).
T1 construct: The presence of the full length GRK6 cDNA within the genome of the recombinant baculovirus was confirmed; made in house; host or cells: Sf9 insect cells (baculovirus, pBacPAK1)
Kind of experiment: GRK6 phosphorylation of rhodopsin. Format: biochemical. Conditions: for effect on GRK6 activity: in the presence of Mg2+; for IC50: purified GRK6, read-out: IC50 for inhibiting GRK6; for fold less effective as inhibitor of GRK6 compared to GRK5: GRK6 versus GRK5.

For experiment [1], the target named is T2, GRK5 (Homo sapiens, UniProt P34947).
T2 construct: The GRK5 ORF was initially excised by restriction digestion of the full length clone pGRK5 using NaeI and SmaI; made in house; host or cells: Sf9 insect cells (baculovirus, pBacPAK1)
Nature of the experiment: GRK5 phosphorylation of rhodopsin (receptor phosphorylation). The class given is biochemical. Conditions: purified GRK5; read-out: IC50 for inhibiting GRK5.

Experiment [2] deals with T2, GRK5. The description is as above. Format: biochemical. Conditions: for reversal of heparin inhibition of GRK5: in presence of heparin. As for the experimental part: Rod outer segments (ROS) were prepared in accordance with methods known to those skilled in the art. Rhodopsin kinase free membranes were prepared by suspending the ROS in 50 mM Tris-HCl, pH 8.0, 5 mM EDTA, 5M urea and sonicating. The urea treated ROS were washed several times by centrifugation and resuspended in 50 mM Tris-HCl, pH 7.5 at a protein concentration of ˜1 mg/ml. Phosphorylation reactions contained 5 μg of total protein from the Sf9 cell supernatants expressing either GRK5 or βARK, urea treated ROS (80 pmol rhodopsin), 20 mM Tris-HCl, pH 7.5, 2 mM EDTA, 6 mM MgCl2 and 0.1 mM [γ-^32P] ATP, in a total reaction volume of 30 μl. When the effect of G protein βγ subunits was assessed, the reactions also contained 0.25 mM dithiothreitol, 0.01% Lubrol and 62 mM NaCl with or without 100 nM βγ subunits. Reactions were incubated at 30° C. for 15 minutes and then stopped by the addition of 50 μl of SDS sample buffer. Samples were electrophoresed on a 10% homogeneous SDS polyacrylamide gel by the method of Laemmli which is well known to those skilled in the art. Gels were dried and autoradiographed at room temperature for 30-120 minutes. The rhodopsin bands in the gel were then cut and counted in a scintillation counter.

For experiment [3], the target named is T2, GRK5. Kind of experiment: GRK5 autophosphorylation. The class given is biochemical.
The next experiment has as its target T3, βARK (Bos taurus, UniProt P21146).
T3 sequence (P21146 1-689): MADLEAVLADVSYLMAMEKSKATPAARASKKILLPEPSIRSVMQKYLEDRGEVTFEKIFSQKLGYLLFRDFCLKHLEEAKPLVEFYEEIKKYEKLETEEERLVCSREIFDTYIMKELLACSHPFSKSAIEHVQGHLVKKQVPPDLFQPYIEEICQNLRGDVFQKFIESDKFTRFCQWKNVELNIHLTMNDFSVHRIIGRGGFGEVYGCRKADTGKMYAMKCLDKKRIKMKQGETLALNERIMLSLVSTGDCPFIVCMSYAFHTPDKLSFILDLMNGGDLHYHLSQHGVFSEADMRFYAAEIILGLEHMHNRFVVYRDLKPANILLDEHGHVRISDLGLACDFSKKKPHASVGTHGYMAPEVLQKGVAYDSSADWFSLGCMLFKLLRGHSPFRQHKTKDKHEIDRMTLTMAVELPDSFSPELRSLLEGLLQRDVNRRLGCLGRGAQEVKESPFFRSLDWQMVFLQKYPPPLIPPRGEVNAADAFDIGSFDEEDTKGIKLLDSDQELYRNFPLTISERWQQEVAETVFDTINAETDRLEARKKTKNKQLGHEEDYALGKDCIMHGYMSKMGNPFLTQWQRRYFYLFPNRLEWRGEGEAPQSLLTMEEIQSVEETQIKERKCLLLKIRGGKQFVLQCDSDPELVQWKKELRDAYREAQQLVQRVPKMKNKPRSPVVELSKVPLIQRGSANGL
Conditions: cited from earlier work.

A further experiment deals with casein kinase II (Homo sapiens, UniProt P67870+P68400). Conditions: cited from earlier work.
Another experiment deals with T4, rhodopsin kinase (Bos taurus, UniProt P28327).
T4 sequence (P28327 1-561): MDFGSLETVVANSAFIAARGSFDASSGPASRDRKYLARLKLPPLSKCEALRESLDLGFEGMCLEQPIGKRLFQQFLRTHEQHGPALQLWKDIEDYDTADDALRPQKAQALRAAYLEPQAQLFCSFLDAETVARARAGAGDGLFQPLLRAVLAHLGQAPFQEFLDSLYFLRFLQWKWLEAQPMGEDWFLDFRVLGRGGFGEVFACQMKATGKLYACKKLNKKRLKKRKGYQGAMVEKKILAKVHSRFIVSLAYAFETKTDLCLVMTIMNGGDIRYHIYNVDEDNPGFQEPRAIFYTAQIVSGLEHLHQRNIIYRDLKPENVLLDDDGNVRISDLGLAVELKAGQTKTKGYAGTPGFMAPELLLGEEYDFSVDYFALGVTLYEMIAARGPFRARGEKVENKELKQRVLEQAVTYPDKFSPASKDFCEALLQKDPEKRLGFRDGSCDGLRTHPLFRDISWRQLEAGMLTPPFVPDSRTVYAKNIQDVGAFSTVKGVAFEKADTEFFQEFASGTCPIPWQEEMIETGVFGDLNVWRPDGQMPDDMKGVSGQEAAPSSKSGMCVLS
Conditions: cited from earlier work.

Several values for one entry are separate records, joined by “and”; a condition that tells them apart may be missing. Equal entries are not always repeated.

Chain of casein kinase II (P68400 whole entry): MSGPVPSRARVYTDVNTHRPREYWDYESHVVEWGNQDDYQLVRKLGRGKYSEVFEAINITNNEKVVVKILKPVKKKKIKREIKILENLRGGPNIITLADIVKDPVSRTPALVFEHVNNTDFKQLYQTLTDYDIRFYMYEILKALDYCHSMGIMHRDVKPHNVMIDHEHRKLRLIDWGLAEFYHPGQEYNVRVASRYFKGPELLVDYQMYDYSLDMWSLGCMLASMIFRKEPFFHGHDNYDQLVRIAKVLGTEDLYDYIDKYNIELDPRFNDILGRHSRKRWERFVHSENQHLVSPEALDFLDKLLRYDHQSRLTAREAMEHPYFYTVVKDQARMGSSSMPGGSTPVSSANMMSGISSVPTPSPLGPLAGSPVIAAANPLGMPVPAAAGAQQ
Chain of casein kinase II (P67870 whole entry): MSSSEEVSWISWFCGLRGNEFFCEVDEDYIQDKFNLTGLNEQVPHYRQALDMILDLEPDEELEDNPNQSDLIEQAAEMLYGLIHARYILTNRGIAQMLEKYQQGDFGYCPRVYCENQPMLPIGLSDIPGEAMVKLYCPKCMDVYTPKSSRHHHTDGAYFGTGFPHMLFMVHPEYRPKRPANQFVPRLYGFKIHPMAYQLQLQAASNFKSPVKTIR
T1 sequence (P43250 whole entry): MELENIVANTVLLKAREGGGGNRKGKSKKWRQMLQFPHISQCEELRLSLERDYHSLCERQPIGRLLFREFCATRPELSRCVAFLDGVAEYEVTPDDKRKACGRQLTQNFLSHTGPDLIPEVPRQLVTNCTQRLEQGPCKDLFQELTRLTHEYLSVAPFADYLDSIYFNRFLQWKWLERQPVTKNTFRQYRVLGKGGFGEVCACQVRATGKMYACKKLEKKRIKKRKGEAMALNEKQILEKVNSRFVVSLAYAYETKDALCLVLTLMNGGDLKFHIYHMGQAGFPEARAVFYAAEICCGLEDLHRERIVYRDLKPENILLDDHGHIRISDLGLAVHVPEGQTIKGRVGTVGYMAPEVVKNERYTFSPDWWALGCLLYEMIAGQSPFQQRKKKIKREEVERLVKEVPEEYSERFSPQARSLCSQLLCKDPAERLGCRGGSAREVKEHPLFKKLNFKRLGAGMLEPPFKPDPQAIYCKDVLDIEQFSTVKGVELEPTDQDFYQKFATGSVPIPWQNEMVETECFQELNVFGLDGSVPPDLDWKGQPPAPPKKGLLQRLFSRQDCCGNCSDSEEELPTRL
T2 sequence (P34947 whole entry): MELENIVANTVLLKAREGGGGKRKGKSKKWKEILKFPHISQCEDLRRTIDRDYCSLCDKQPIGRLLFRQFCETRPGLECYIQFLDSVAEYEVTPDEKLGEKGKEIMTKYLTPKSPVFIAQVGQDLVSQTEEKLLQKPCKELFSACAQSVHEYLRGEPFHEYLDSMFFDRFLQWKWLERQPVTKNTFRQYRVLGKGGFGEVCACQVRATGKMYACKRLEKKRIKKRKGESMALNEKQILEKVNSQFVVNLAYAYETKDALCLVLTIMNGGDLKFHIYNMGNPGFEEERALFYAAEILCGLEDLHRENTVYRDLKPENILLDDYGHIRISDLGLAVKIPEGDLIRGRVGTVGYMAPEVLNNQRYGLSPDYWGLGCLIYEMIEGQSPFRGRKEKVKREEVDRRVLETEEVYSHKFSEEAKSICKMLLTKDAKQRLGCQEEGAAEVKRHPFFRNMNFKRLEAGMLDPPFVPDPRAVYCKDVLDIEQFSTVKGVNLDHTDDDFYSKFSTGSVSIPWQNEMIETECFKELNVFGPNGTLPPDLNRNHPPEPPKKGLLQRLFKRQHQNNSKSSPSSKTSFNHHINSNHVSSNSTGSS

For `[Ca+2]` [Ca^2+], the “effect on GRK6 activity” value on GRK6 was “inhibited”.
A word on the IC50: it is the point on the concentration scale where inhibition reaches its midpoint. Regarding `CC1CNCCN1S(=O)(=O)c1cccc2cnccc12` (stereo not drawn) [H-7], the IC50 on GRK5 [1] is roughly 170 µM.
As for `Cl` [NaCl], the concentration for half-maximal inhibition (IC50) on GRK5 [2] (IC50 for inhibiting GRK5 (receptor phosphorylation), purified GRK5) was ~60000 µM and 58000 µM; against GRK5 [3] it was roughly 70000 µM.
For `[Zn+2]` [Zn^2+], the “effect on GRK6 activity” value at GRK6 is on record as “inhibited”.
`NCCCCNCCCN` [spermidine]: on GRK5 [2], the “reversal of heparin inhibition of GRK5” value was “effectively reversed”. The “activation of GRK5” value at GRK5 [2] (optimal concentrations) was roughly 1.5 fold. The “enhancement of GRK6 activity” value on GRK6 (optimal concentration range 0.1 to 0.5 mM) is on record as roughly 1.4 fold. Also, the “inhibition of βARK” value at βARK was “weak inhibitors”. Besides, the “effect on casein kinase” value on casein kinase II is “activators”. At rhodopsin kinase, the “effect on rhodopsin kinase” value is recorded as “activators”.
Regarding `NCCCNCCCCNCCCN` [spermine], the “reversal of heparin inhibition of GRK5” value at GRK5 [2] is “effectively reversed”. The “activation of GRK5” value on GRK5 [2] (optimal concentrations) is on record as roughly 1.8 fold. Further, the “elevation of GRK6 phosphorylation of rhodopsin” value on GRK6 (optimal concentration range 0.01 to 0.1 mM) was roughly 1.5 fold. Further, the “inhibition of βARK” value at βARK is reported as “weak inhibitors”. For the same molecule, the “effect on casein kinase” value at casein kinase II was “activators”. At rhodopsin kinase, the “effect on rhodopsin kinase” value is reported as “activators”.
In the case of dextran sulfate, the figures for the IC50 at GRK6 and at GRK5 [1] were 0.007 µM and roughly 0.0006 µM, respectively.
With heparin, the values for the 50% inhibitory concentration (IC50) at GRK6, on GRK5 [1] and at rhodopsin kinase were roughly 0.015 µM, roughly 0.001 µM and roughly 200 µM, respectively. Further, at GRK5 [3] (concentration of 10 μM), the “inhibition of GRK5 autophosphorylation” value is given as “does not inhibit”.
For polyaspartic acid, at GRK6, the “fold less effective as inhibitor of GRK6 compared to GRK5” value is roughly 6 fold and the IC50 is 0.487 µM.
In the case of polyglutamic acid, on GRK6, the “fold less effective as inhibitor of GRK6 compared to GRK5” value is roughly 16 fold and the IC50 amounted to 0.4 µM.
Take polylysine: the “reversal of heparin inhibition of GRK5” value at GRK5 [2] is listed as “effectively reversed”. For the same molecule, at GRK5 [2] (optimal concentration of 10 μM), the “activation of GRK5” value is given as roughly 2.6 fold. In addition, the “increase in GRK6 phosphorylation” value on GRK6 (optimal range 1 to 10 μM) was roughly 2.7 fold. Further, the “inhibition of βARK” value at βARK is listed as “weak inhibitors”. Further, the “effect on casein kinase” value at casein kinase II was “activators”. Also, the “effect on rhodopsin kinase” value on rhodopsin kinase is “activators”.

The values are drawn from patent publication US20020034767A1, “Compositions and methods for modulating the activity of G protein-coupled receptor kinases GRK5 and GRK6” (priority 1993, published 2002).
